In patent publication US10730870B2, “Compounds and methods for the enhanced degradation of targeted proteins” (Arvinas, Inc., priority 2015, dated 2020):

How the values were obtained:
His-tagged VHL protein = His-tagged VHL protein (Homo sapiens (Human), UniProt P40337); assay: Surface plasmon resonance (SPR) assay; type: binding; details: average of at least N=2, 1:1 fitting
Protocol: The surface plasmon resonance (SPR) experiments were conducted on a Biacore3000 (GE Healthcare). His-tagged VHL protein was immobilized on a carboxymethylated dextran surface with nitriloacetic acid (NTA), taking advantage of NTA/Ni^2+ chelation. The prepared surface was allowed to equilibrate over three hours in running buffer (Ambion 1×PBS buffer @ pH 7/4, 0.005% Tween, 2% DMSO).
All compounds were prepared in 100% DMSO stock plates with a top concentration of 5 mM in a 3× serial dilution. Compounds were transferred from the stock plate to the assay plate and diluted into running buffer containing no DMSO. All compounds were run as a six-concentration series with a final assay top concentration of 100 uM. Data analysis was performed in Scrubber 2 (BioLogic software, Campbell, Australia). Blanks were subtracted and data was corrected for DMSO using a standard DMSO curve.
Table 2 illustrates VHL inhibition data (i.e., Kd, μM) of examples contained herein in a surface plasmon resonance (SPR) assay.

LNCap and VCaP cells = assay: Apoptosis, cell death and anti-proliferation in LNCaP and VCaP cell systems; type: cell-based; details: increasing concentrations of AR agonist R1881 and cells containing the AR F876L mutation

Sequence of His-tagged VHL protein (P40337 whole entry, looked up): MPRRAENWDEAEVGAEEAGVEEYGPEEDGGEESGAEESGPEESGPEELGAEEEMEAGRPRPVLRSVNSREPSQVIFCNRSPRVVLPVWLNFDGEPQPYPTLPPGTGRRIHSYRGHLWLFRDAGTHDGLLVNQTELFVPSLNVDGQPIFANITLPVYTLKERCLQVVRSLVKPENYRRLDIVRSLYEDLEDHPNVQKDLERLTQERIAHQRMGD
Sequence of His-tagged VHL protein (Q15370 whole entry partner, looked up): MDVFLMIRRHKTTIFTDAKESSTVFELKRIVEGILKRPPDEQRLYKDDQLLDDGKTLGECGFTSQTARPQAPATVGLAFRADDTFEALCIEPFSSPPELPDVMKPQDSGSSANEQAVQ
Sequence of His-tagged VHL protein (Q15369 whole entry partner, looked up): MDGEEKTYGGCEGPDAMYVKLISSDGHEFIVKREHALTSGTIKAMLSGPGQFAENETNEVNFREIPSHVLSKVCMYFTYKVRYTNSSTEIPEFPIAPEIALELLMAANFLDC

Kd (His-tagged VHL protein)	SMILES	anti-proliferative activity (LNCap and VCaP cells)
240 nM	CC[C@H](NC(=O)[C@@H]1C[C@@H](O)CN1C(=O)[C@@H](c1cc(C)no1)C(C)C)c1ccc(-c2scnc2C)cc1 [Example 207, (2S,4R)-4-hydroxy-N-[(1S)-1-[4-(4-methyl-1,3-thiazol-5-yl)phenyl]propyl]-1-[(2R)-3-methyl-2-(3-methyl-1,2-oxazol-5-yl)butanoyl]pyrrolidine-2-carboxamide]	–
–	CNC(=O)c1ccc(N2C(=S)N(c3ccc(C#N)c(C(F)(F)F)c3)C(=O)C2(C)C)cc1F [enzalutamide]	inactive
